{
  "source": "patent US8252807B2",
  "about": "“Methods of inhibiting the interaction between S100 and the receptor for advanced glycation end-products” (Board of Regents, The University of Texas System, priority 2007, dated 2012)",
  "molecules": {"B1": {"name": "S100P: purified His-tagged full-length human S100P protein, added exogenously as RAGE ligand (protein, UniProt P25815 1-95, looked up)", "chain": "MTELETAMGMIIDVFSRYSGSEGSTQTLTKGELKVLMEKELPGFLQSGKDKDAVDKLLKDLDANGDAQVDFSEFIVFVAAITSACHKYFEKAGLK", "modifications": "full-length His tag", "notes": "purified His-tagged full-length human S100P protein, added exogenously as RAGE ligand"}},
  "key": {"[1]": {"molecular_target": "S100B with RAGE (Homo sapiens, UniProt P04271)", "sequence (P04271 whole entry, species assumed)": "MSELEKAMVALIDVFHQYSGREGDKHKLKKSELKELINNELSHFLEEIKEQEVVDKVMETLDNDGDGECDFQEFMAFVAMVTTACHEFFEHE", "experiment": "S100B binding with RAGE ELISA (sRAGE coated plate)", "source_text": "After removing un-bound S100B by washing with detergent, bound S100B and RAGE complex was quantified by adding HRP labeled antibody against S100B."}, "[2]": {"molecular_target": "T1, S100P binding with RAGE (Homo sapiens, UniProt P25815)", "T1 construct": "full-length human S100P cDNA (NM_005980) was cloned into the pTrcHis2 vector; His tag", "T1 sequence (P25815 1-95)": "B1 chain", "experiment": "S100P binding with RAGE ELISA (sRAGE coated plate)", "procedure": "After removing un-bound S100P by washing with detergent, the bound S100P and RAGE complex was quantified by adding HRP labeled antibody against S100P. *, P=0.04 C5 μM versus cromolyn 5 μM. Two-tailed two-sample (unpaired) Student's t-tests were used to determine P values."}, "[3]": {"test_system": "BxPC-3 cells", "experiment": "BxPC-3 cell viability, 72 hours", "type": "cell-based", "procedure": "BxPC-3 cells were plated at 1.0×10^3 cells/well and treated with 0 μM, 1 μM, 10 μM, and 100 μM of cromolyn or C5 alone or in combination with gemcitabine 1 μM and cell viability was analyzed after 72 hours. Two-tailed two-sample (unpaired) Student's t-tests were used to determine P values. […] BxPC-3 cells were plated at 1.0×10^3 cells/well and treated with either 100 μM of cromolyn or 1 μM C5 alone or in combination with gemcitabine (1 μM) and cell viability was analyzed after 72 hours."}, "[4]": {"test_system": "NFκB activity in MPanc-96 cells", "experiment": "S100P stimulated NFκB luciferase reporter, MPanc-96", "type": "cell-based, human", "procedure": "MPanc-96 pancreatic cancer cell lines stably expressing an NFκB luciferase reporter were examined for the effects of S100P, cromolyn and C5. Cells were plated at 5.0×10^3 cells/well, treated for 5 hours with 100 nM of S100P, with or without cromolyn and C5 (1 μM), and activity of a luciferase gene driven by the NFkB promoter was analyzed. P=0.05 C5 versus cromolyn. Two-tailed two-sample (unpaired) Student's t-tests were used to determine P values."}, "[5]": {"test_system": "MPanc-96 cells", "experiment": "MPanc-96 cell apoptosis by flow cytometry, 72 hours", "type": "cell-based, human", "conditions": "100 and 1000 nM, with or without gemcitabine 10 μM", "procedure": "FIG. 11 compares the effects of cromolyn and C5 alone and in combination with gemcitabine on MPanc-96 cell apoptosis. MPanc-96 cells were treated with cromolyn or C5 (100 and 1000 nM) with (+) or without (−) gemcitabine (10 μM). Apoptosis was analyzed after 72 hours by flow cytometry."}, "[6]": {"test_system": "Panc-1 cells", "experiment": "Panc-1 cell growth (MTS)", "type": "cell-based", "procedure": "Panc-1 pancreatic adenocarcinoma cells (1.0×10^3 cells/well) were cultured in the presence or absence of S100P (100 nM) and with or without cromolyn (100 μM), and cell proliferation was analyzed at 24, 48, and 72 hours. Means and 95% confidence intervals of three independent experiments performed in triplicate are shown. *, P=0.001, S100P alone versus S100P+cromolyn.\nPanc-1 cells were plated at 1.0×10^3 cells/well and treated with platelet-derived growth factor (10 ng/mL) with or without cromolyn (100 μM), and cell proliferation was analyzed after 48 hours. Means and 95% confidence intervals of three independent experiments performed in triplicate are shown. *, P=0.004 PDGF and P=0.022 cromolyn+PDGF versus control.\nGrowth of Panc-1 and BxPC3 pancreatic adenocarcinoma cells was analyzed using MTS reagent (Promega, Madison, Wis.) according to the manufacturer's directions. Purified S100P (100 nM final concentration) with or without cromolyn (100 μM final concentration) was added to Panc-1 cells. Only cromolyn (0-100 μM) was added to BxPC-3 cells, which express endogenous S100P. For both cell models, 1.0×10^3 cells/well were plated in 96-well culture dishes. Cells were treated with S100P, PDGF, or cromolyn, or a combination, followed immediately by treatment with either S100P or PDGF. MTS (20 μL per well) was added to cells at various times, and the mixture was incubated for 1 hour at 37° C. Samples were then read at 490 nm (as O.D. units) on a uQuant-Microplate Spectrophotometer (Bio-Tek Services Inc., Richmond, Va.). The assay was performed three times in triplicate."}, "[7]": {"test_system": "Panc-1 cells", "experiment": "Matrigel invasion assay, Panc-1", "type": "cell-based", "conditions": "S100P 100 nM alone, 24 hours", "procedure": "FIGS. 2A-2D show the effect of cromolyn on pancreatic cancer cell invasion. Panc-1 and BxPC-3 cells were plated in Bio-coat matrigel and control chambers and cultured in serum-free culture media. After 24 hours non-invaded cells in the upper chamber were removed, and cells that invaded onto the lower surface of the membrane were counted from five adjacent fields. […] Data are expressed as the percent invasion through the matrigel matrix and membrane relative to migration through the control membrane. Means and 95% confidence intervals from three independent experiments performed in triplicate are shown. Two-tailed two-sample (unpaired) Student's t-tests were used to determine P values.\nPanc-1 and BxPC-3 cells were seeded in BIOCOAT matrigel invasion chambers and in control chambers without matrigel (Becton-Dickinson, Bedford, Mass.) according to the manufacturer's protocol. Panc-1 cells were seeded with S100P (100 nM) with or without cromolyn (100 μM), and BxPC-3 cells were seeded with or without cromolyn (1-100 μM). Briefly, 2.0×10^5 cells in 300 μL top solution (serum-free media) were added to each chamber and allowed to invade matrigel for 24 hours at 37° C. in a 5% CO2 atmosphere. The non-invading cells on the upper surface of membrane were removed from the chambers with a cotton swab, and the invading cells on the lower surface of the membrane were fixed and stained using a Diff-Quick stain kit (Becton Dickinson, Bedford, Mass.). After two washes with water, the chambers were allowed to air dry. The numbers of invading cells in five adjacent microscope fields per membrane were counted at 20× magnification to obtain the average number of cells per field. Data are expressed as the percent invasion through the matrigel matrix and membrane relative to the migration through the control membrane. The assays were performed three times."}, "[8]": {"test_system": "NFκB promoter activity in Panc-1 cells", "experiment": "Luciferase assay for NFκB activity, Panc-1", "type": "cell-based", "conditions": "for NFκB promoter activity in Panc-1 cells, mean: 5 hours, 0 nM mean=3358", "procedure": "FIGS. 3A, 3B, and 3C show the effect of cromolyn on S100P stimulated NFκB promoter activity in pancreatic cancer cells in vitro and in vivo. Panc-1 and BxPC-3 pancreatic cancer cell lines stably expressing an NFκB luciferase reporter were examined for the effects of S100P and cromolyn. […] Means and 95% confidence intervals are shown for three independent experiments performed in triplicate. *, P=0.022, †, P<0.001, and ‡, P<0.001 versus control; #, P=0.005 versus 100 nM S100P alone. […] Means and 95% confidence intervals are shown for three independent experiments performed in triplicate. *, P=0.003, †, P<0.001 versus control. […] After 1 week, tumor growth was assessed and NFκB activity was analyzed using an IVIS system (Xenogen Corp., Alameda, Calif.) after injecting mice with D-luciferin (150 mg per kg body weight) (0 time point). The mice were treated with cromolyn (5 mg per kg body weight by intraperitoneal injection), and NFκB luciferase activity was analyzed again at 24 and 48 hours. *, P=0.005 versus control. Means and 95% confidence intervals are shown for two independent experiments (n=4 mice per group). Two-tailed two-sample (unpaired for in vitro and paired for in vivo studies) Student's t-tests were used to determine P values.\nTo study pancreatic cancer cell NFκB activity, a lentivirus NFκB luciferase reporter gene construct was developed. The NFκB luciferase reporter gene was excised and isolated from the pNF-κB-Luc Vector (Clonetec, Mountain View, Calif.) and cloned into the lentiviral vector FG9 (Gift from Dr. Xiao-Feng Qin, Dept. of Immunology, M.D. Anderson Cancer Center replacing the CMV/LTR and UBiC promoters, to form Lenti-NFκB-Luc. Lentiviral NFκB vector were co-transfected with packaging constructs pRSVREV, pMDLg/pRRE, and the VSV-G expression plasmid pHCMVG, and lentivirus was produced in 293T cells by the calcium transfection method, as previously described in Qin, et al., Inhibiting HIV-1 infection in human T cells by lentiviral-mediated delivery of small interfering RNA against CCR5; Proc. Natl. Acad. Sci. U.S.A. 2003 Jan. 7; 100(1):183-8. […] Functional validation of NFκB reporter activity was conducted in vitro using TNF-α (20 ng/mL, Sigma, St. Louis, Mo.) as a positive control.\nBxPC-3 and Panc-1 cells stably expressing a Lenti-NFkB-luc reporter construct were treated with S100P, cromolyn, or the combination for 5 hours. D-luciferin (150 μg/mL) was added to the cells, and luciferase activity was measured using an IVIS bioluminescence system (Xenogen Co. Alameda, Calif.). Each experiment was conducted three times in triplicate."}},
  "data": [
    {"molecule": "O=C([O-])c1cc(=O)c2c(OCCCCCOc3cccc4oc(C(=O)[O-])cc(=O)c34)cccc2o1.[Na+].[Na+]", "note": "[C5, disodium 1,5-bis(2-carboxychromon-5-yloxy) pentane]", "values": [
      {"measurement": "interaction of S100B with RAGE", "setting": "[1]", "result": "inhibit the interaction of S100B with RAGE"},
      {"measurement": "concentration achieving the same level of S100P inhibition", "setting": "[2]", "result": 100, "unit": "nM"},
      {"measurement": "interaction between S100P with RAGE", "setting": "[2]", "result": "blocked"},
      {"measurement": "potency relative to cromolyn in blocking S100P-RAGE interaction", "setting": "[2]", "result": "more potent than cromolyn"},
      {"measurement": "BxPC-3 cell viability", "setting": "[3]; 1-100 μM, alone or with gemcitabine 1 μM", "result": "inhibit BxPC-3 cell viability"},
      {"measurement": "inhibition of BxPC-3 cell viability relative to cromolyn", "setting": "[3]; alone at 10 or 100 μM, with gemcitabine at 1-100 μM", "result": "more potent and more efficacious than cromolyn"},
      {"measurement": "concentration giving the same level of cell reduction in combination with gemcitabine", "setting": "[3]; with gemcitabine 1 μM", "result": 1, "unit": "µM"},
      {"measurement": "NFκB activity in pancreatic cancer cells in vitro", "setting": "[4]; S100P 100 nM, compound 1 μM, 5 hours", "result": "inhibit NFκB activity"},
      {"measurement": "reduction of S100P induced NFκB activity relative to cromolyn", "setting": "[4]; same dose (1 μM)", "result": "much better than cromolyn"},
      {"measurement": "MPanc-96 cell viability", "setting": "[5]", "result": "inhibit MPanc-96 cell viability"}
    ]},
    {"molecule": "PDGF", "values": [
      {"measurement": "Panc-1 cell growth, difference control versus PDGF", "setting": "[6]; PDGF 10 ng/mL, 48 hours", "result": 0.2, "unit": "MTS units"},
      {"measurement": "Panc-1 cell growth, mean", "setting": "[6]; PDGF 10 ng/mL, 48 hours, control mean=0.5", "result": 0.7, "unit": "MTS units"}
    ]},
    {"molecule": "B1", "values": [
      {"measurement": "Panc-1 cells invaded, mean", "setting": "[7]", "result": 58.0, "unit": "%"},
      {"measurement": "Panc-1 cell proliferation, mean", "setting": "[6]; S100P 100 nM alone", "result": 0.93, "unit": "MTS units"},
      {"measurement": "NFκB promoter activity in Panc-1 cells, difference versus 0 nM", "setting": "[8]; S100P 1 nM", "result": 3544, "unit": "photons/sec"},
      {"measurement": "NFκB promoter activity in Panc-1 cells, mean", "setting": "[8]; S100P 1 nM", "result": 6902, "unit": "photons/sec"},
      {"measurement": "NFκB promoter activity in Panc-1 cells, difference versus 0 nM", "setting": "[8]; S100P 10 nM", "result": 5400, "unit": "photons/sec"},
      {"measurement": "NFκB promoter activity in Panc-1 cells, mean", "setting": "[8]; S100P 10 nM", "result": 8758, "unit": "photons/sec"},
      {"measurement": "NFκB promoter activity in Panc-1 cells, difference versus 0 nM", "setting": "[8]; S100P 100 nM", "result": 11100, "unit": "photons/sec"},
      {"measurement": "NFκB promoter activity in Panc-1 cells, mean", "setting": "[8]; S100P 100 nM", "result": 14460, "unit": "photons/sec"}
    ]}
  ]
}
